How the values were obtained:
MCF-10A neoT cells = experiment: MTS cell viability assay; settings: 24 h, concentrations used to monitor ECM degradation
Description: The cells were seeded at 6 × 10^4 cells/well into a 96-well microplate and incubated overnight for attachment. The cells were then treated with the inhibitor (at 1, 2.5, or 5 μM) or DMSO (0.1%) in 100 μL for 24 h. After incubation, 10 μL of the reagent MTS was added to the wells, and the absorbance of formazan was measured at 492 nm on a Tecan Infinite M1000 instrument (Mannedorf, Switzerland). Cell viability (%) was expressed as the ratio between absorbance in the presence of the compounds and that in the presence of DMSO. All assays were performed in quadruplicate and repeated twice.

Colo205 cells = experiment: MTT cytotoxicity assay, Colo205; assay type: cell-based, human; settings: 72 h incubation, MTT; read-out: IC50 Colo205
Description: Its cytotoxicity was determined in the human HeLa cervical cancer cell line, the drug-sensitive Colo205 and its resistant counterpart, the ABCB1 expressing Colo320 colon adenocarcinoma cancer cell lines, using the colorimetric 3-(4,5-dimethylthiazol-2-yl)-2,5-diphenyltetrazolium bromide (MTT) test. To investigate the selectivity toward cancer cells, the noncancerous fibroblast CCD-19Lu cell line was included.
Drug-sensitive Colo205 (ATCC-CCL-222) and ABCB1 (MDR1)-LRP expressing and doxorubicin-resistant Colo320/MDR-LRP (ATCC-CCL-220.1) human colonic adenocarcinoma cell lines were purchased from LGC Promochem (Teddington, U.K.). The cells were cultured in RPMI 1640 medium supplemented with 10% heat-inactivated fetal bovine serum, 2 mM L-glutamine, 1 mM Na-pyruvate, and 10 mM HEPES.
The tested compound was dissolved in DMSO to prepare a 5 mM stock solution, which was diluted in complete culture medium, to study the effect of compounds on cell growth of human colonic adenocarcinoma cell lines. Doxorubicin was used as the positive control. The cells were treated with a trypsin-versene (EDTA) solution. Cells were adjusted to a density of 1 × 10^4 cells in 100 μL of the appropriate culture medium and were added to each well, with the exception of the medium control wells. Except for the semiadherent Colo205 and Colo320 cell lines, the other adherent cell lines were seeded 24 h prior to the assay. Then, stock solutions were diluted in the appropriate culture medium, and 2-fold serial dilutions of compounds were prepared in 100 μL of the medium, horizontally. The final volume of the wells containing compounds and cells was 200 μL. The plates were incubated at 37 °C for 72 h; at the end of the incubation period, 20 μL of MTT solution (from a stock solution of 5 mg/mL) was added to each well. […] Cell growth was determined by measuring the optical density (OD) at 540/630 nm with a Multiscan EX ELISA reader (Thermo Labsystems, Cheshire, WA). […]

E. coli ATCC 25922 = experiment: Antibacterial MIC assay, E. coli ATCC 25922; assay type: cell-based, Escherichia coli; settings: 18 h, visual inspection
Description: The antibacterial effect of the complex was tested against the Gram-negative strain Escherichia coli (E. coli) ATCC 25922, the Gram-positive reference strain Staphylococcus aureus (S. aureus) ATCC 25923, and the methicillin-resistant S. aureus MRSA ATCC 43300 strain. MRSA strains are responsible for several difficult-to-treat hospital-acquired infections.
The following bacterial strains were used in our experiments: Gram-positive S. aureus American Type Culture Collection (ATCC) 25923 as the methicillin-susceptible reference bacterial strain; methicillin-resistant S. aureus ATCC 43300 (MRSA) strain; E. coli ATCC 25922 as a Gram-negative bacterial strain.
MIC values of the complexes were determined in 96-well plates based on the Clinical and Laboratory Standard Institute guidelines (CLSI guidelines). The stock solutions of the compound (dissolved in DMSO at 5 mM concentration) were diluted in 100 μL of Mueller Hinton Broth. Then, 10^–4 dilution of an overnight bacterial culture in 100 μL of medium was added to each well, with the exception of the medium control wells.

[1] = Stability/transformation in aqueous solution (1H NMR, UV-vis, CZE); assay type: physicochemical
Description: A Bruker Avance III HD Ascend 500 Plus instrument (Billerica, MA) was used for solution NMR studies. Spectra were recorded with a WATERGATE water suppression pulse scheme in the presence of 10% (v/v) D2O in most cases. DSS internal standard was added to samples to obtain reference peaks.

Compound: N#Cc1ccccc1.[C-]#[O+].[C-]#[O+].[C-]#[O+].[O-]n1ccccc1=S.[Re+] [complex 4, fac-[Re(CO)3(pth)(benzonitrile)]]
- effect on viability of MCF-10A neoT cells (MCF-10A neoT cells): did not impair the viability
- IC50 (Colo205 cells): 9.22 ± 0.53 µM
- MIC E. coli ATCC 25922 (E. coli ATCC 25922): 50 µM
- time for complete release of the benzonitrile ligand ([1]; water pH 6.8 and pH 7.4 (phosphate or HEPES buffer), kept in the dark, 1H NMR): ≤ 1 h
- dissociation of the pyrithione ligand ([1]; water pH 6.8 and pH 7.4 buffers, dark, 48 h): did not occur within 48 h

— PMC12391994, “Synthesis of a fac-Tricarbonylrhenium(I) Complex with Pyrithione, Its Physicochemical Characterization, and Assessment of Biological Effects” (ACS Omega, 2025)
